Key:
H9c2 cells [1] = assay: Mn-SOD activity of H9c2 cells injured by H2O2; assay type: cell-based; conditions: H2O2 injured H9c2; SPRC Low Dose 10^−7 mol/L
Description: (§1) H9c2 cells were cultured same as Example 12, the cells were then divided into the groups same as Example 12.
The cells were lysed under sterilized condition, and lipid peroxidation experiments on the samples were performed. […] The effect of SPRC could be blocked by PAG, indicating SPRC mediates its effect on H9c2 cell by way of endogenous H2S.

Bcl-2 = assay: Western blot of Bcl-2 protein in left ventricle; assay type: in vivo, SD rats; conditions: MI rats, 50 mg/Kg/day, p<0.01
Excerpt: (§2) Animals were assigned and prepared the same as in Example 7, and dosages of SPRC and SAC were used the same in this example as in Example 7.

Bax = assay: Western blot of Bax protein in left ventricle; assay type: in vivo, SD rats; conditions: MI rats, 50 mg/Kg/day, p<0.01
Excerpt: as §2

H9c2 cells [2] = assay: Apoptosis of H9c2 cells, Hoechst and PI double stain; assay type: cell-based; conditions: H2O2 injured H9c2; Hoechst 33342 and PI double stain
Description: as §1
Cells were washed in PBS and then stained with Hoechst 33342 (10 μg/ml) and propidium iodide (10 μg/ml) for 10 min at 37° C. Cells were washed again with PBS and fixed with 3.7% paraformaldehyde (v/v). Each field of cells was photographed twice (magnification, ×400), using appropriate filters to examine and compare Hoechst 33342 and PI fluorescence staining in the same cells. […]. Apoptosis is of great damage to the structure and the function of the heart, which leads to heart failure.

Bax mRNA = assay: RT-PCR of Bax mRNA in left ventricle; assay type: in vivo, SD rats; conditions: MI rats, 50 mg/Kg/day, p<0.05
Excerpt: as §2
(§3) To further verify the effects of SPRC and SAC, the expressions of Bcl-2, Bax and CSE mRNA were accessed by RT-PCR (FIG. 17). An isoform of the CSE gene was detected (GenBank; access no. AY641456). The relative amounts of CSE mRNA in Left ventricular subjected to MI were increase 3.3-fold and 1.5-fold following SPRC and SAC exposure as compared to the MI group.

Bcl-2 mRNA = assay: RT-PCR of Bcl-2 mRNA in left ventricle; assay type: in vivo, SD rats; conditions: MI rats, 50 mg/Kg/day, p>0.05
Excerpt: as §2, §3

H9c2 cells [3] = assay: H9c2 cell viability by MTT method after H2O2 injury; assay type: cell-based; conditions: H2O2 200 μmol/L 2 hours; SPRC Low Dose 10^−7 mol/L
Description: (§4) H9c2 cells were cultured in DMEM with 10% of fetal bovine serum, 37 degree C. and 5% CO2 incubator. The monolayer culture was split at a 1:4 ratio or harvested to perform experiments when confluence was 70-80%. Adjust the density of the cells to […] and inoculate the cells on a 96 well plate.
Control group, no SAC analogues treatment, no H2O2 injured process.
(§5) H2O2 injury (Model) group, no SAC analogues treatment, under H2O2 200 μmol/L for 2 hours.
(§6) PAG group, PAG 10^−4/mol/L
(§7) SPRC dosage groups: SPRC 1E-7, SPRC 1E-6, SPRC 1E-5, the cell groups were treated with SPRC dosages of 10^−7 mol/L, 10^−6 mol/L, 10^−5 mol/L respectively.
(§8) SPRC dosage+PAG groups: the cell group was treated with SPRC dosages of 10^−5 mol/L and PAG 10^−4 mol/L.
H9c2 cell viability was assessed by MTT method. […] PAG is able to block the effect of SPRC.

CSE mRNA = assay: RT-PCR of CSE mRNA in left ventricle; assay type: in vivo, SD rats; conditions: MI rats, 50 mg/Kg/day
Excerpt: as §2, §3

H9c2 cells [4] = assay: LDH leakage of H9c2 cells injured by H2O2; assay type: cell-based; conditions: for LDH Leakage: H2O2 200 μmol/L 2 hours
Description: as §4, §5, §6, §7, §8
The cell samples (10^6 cells/sample) from each group were lysed under sterilized condition, and LDH contents in each samples were tested by pyruvic acid production method.

H9c2 cells [5] = assay: Endogenous H2S level in H2O2 injured H9c2 cells; assay type: cell-based; conditions: SPRC treatments
Excerpt: (§9) Similar experiments are done on cultured H9c2 cardiac muscle cells groups with the same experiment condition and different dosages of SPRC treatments. The results of the experiments confirm that endogenous H2S level in H2O2 injured H9c2 cells is elevated by SPRC treatments. […] It is also observed that the apoptosis of hypoxic myocardial cells is decreased, the survival rate of the in H2O2 injured H9c2 cells is increased and the LDH releasing from the in H2O2 injured H9c2 cells are reduced by three dosages of SPRC treatment.

H9c2 cells [6] = assay: Catalase activity in H2O2 injured H9c2 cells; assay type: cell-based; conditions: SPRC treatments
Excerpt: as §9

rats following MI injury = assay: MDA content (TBA assay) in rats (sham or MI); assay type: in vivo, SD rats; conditions: Sham rats; 50 mg/Kg/day intraperitoneal
Description: as §2
Serum CK levels were detected with diagnostic kit (NJBI, China) according to the instructions. LDH were determined calorimetrically with a spectrophotometer. Lipid peroxidation was measured in terms of MDA content using the thiobarbituric acid (TBA) assay. […] With regard to lipid peroxidation, the levels of MDA in MI groups increased at 48 h after myocardial infarction. […] (FIG. 14)

CSE = assay: Western blot of CSE protein in left ventricle; assay type: in vivo, SD rats; conditions: MI rats, 50 mg/Kg/day, p<0.01
Excerpt: as §2

C#CCSC[C@H](N)C(=O)O [SPRC, S-propargyl-cysteine]
Mn-SOD Activity (H9c2 cells [1]): 8.75 ± 0.68 U/mgprot | Bcl-2 protein expression (Bcl-2): up-regulated | Bax protein levels (Bax): down-regulated | apoptosis of H9c2 cells (H9c2 cells [2]): effective on inhibiting apoptosis of H9c2 cells | Bax gene expression (Bax mRNA): down regulated | Bcl-2 gene expression (Bcl-2 mRNA): no significant differences | H9c2 Cell Survive (H9c2 cells [3]): 62.4 ± 1.6% | relative amounts of CSE mRNA, increase as compared to the MI group (CSE mRNA): 3.3 fold | LDH Leakage (H9c2 cells [4]; SPRC High Dose 10^−5 mol/L): 43.9 ± 3.0 % | LDH Leakage (H9c2 cells [4]; SPRC Low Dose 10^−7 mol/L): 51.4 ± 1.8% | LDH Leakage (H9c2 cells [4]; SPRC middle Dose 10^−6 mol/L): 50.0 ± 2.6 % | LDH leakage compared with model group (H9c2 cells [4]; H2O2 injured H9c2, SPRC groups (10^−7 to 10^−5 mol/L)): less LDH leakage than that of model group | endogenous H2S level (H9c2 cells [5]): elevated | catalase activity (H9c2 cells [6]): elevated | MDA (rats following MI injury): 3.79 ± 0.40 nmol/mL | CSE protein expression (CSE): up-regulated
